Measured values from patent US12285408B2, “Methods and compositions for the treatment of snake bite” (priority 2021, dated 2025).

Key:
Echis ocellatus venom = experiment: Murine 'challenge then treat' model of envenoming, intraperitoneal; type: in vivo, CD-1 mice
Description: FIG. 18. […] Kaplan-Meier survival graphs for experimental animals (n=5) that received E. ocellatus venom (intraperitoneal administration of 90 μg; 5×iv. LD50), followed by delayed drug treatment intraperitoneally 15 mins later. […] For the DMPS and antivenom (D+AV) group, experimental animals received 120 μg of DMPS 15 mins after venom, and intravenous antivenom (168 μl of the E. ocellatus monospecific antivenom EchiTAbG, MicroPharm Ltd, UK) 1 hr after venom delivery. All DMPS data presented is taken from Albulescu et al. “Preclinical validation of a repurposed metal chelator as an early-intervention therapeutic for hemotoxic snakebite. Sci. Trans. Med. 12, eaay8314 (2020)”).
To better mimic a snakebite scenario, mice were initially challenged with venom, followed by the delayed administration of a single drug or a combination of drugs, as previously described. The venom challenge dose was increased to ensure complete lethality in the venom-only control group occurred within 4-5 hours. Groups of five male 18-22 g CD-1 mice (Charles River, UK) were injected with venom (100 μl final volume), followed by a drug dose that was scaled up accordingly after 15 min. […] Experimental animals were monitored for 24 h, with humane end points for euthanasia, and data recording, performed as described above. […]

[1] = system: Echis ocellatus venom metalloproteinase activity; experiment: In vitro snake venom metalloproteinase assay (quenched fluorogenic substrate), drug screen; type: biochemical; conditions: 10 μM drug, control drug
Description: FIG. 1. Inhibition of Echis ocellatus venom metalloproteinase activity by known matrix metalloproteinase inhibitors (MMPi) and rationally selected drugs based on their target site interactions. One microgram of whole venom per reaction was incubated with 10 μM of drug (dissolved in DMSO). Predicted metalloproteinase inhibitors were based on descriptors from a MedChemExpress commercial library and the literature. […] The percentage metalloproteinase activity was calculated from an endpoint read taken 45 minutes after substrate addition. The phospholipase inhibitor varespladib was included as a non-metalloproteinase inhibiting drug control.
The snake venom metalloproteinase activity in the presence of inhibitors or vehicle control (DMSO), was measured using a quenched fluorogenic substrate (ES010, R&D Biosystems). […] The substrate was suspended in reaction buffer (150 mM NaCl, 50 mM Tris-HCl pH 7.5). Reactions consisted of 1 μg/reaction of venom (1 μg in 15 μl PBS) co-incubated with 0.91 μl of 1 mM of inhibitor, both added using the VIAFLO 384 (Integra). […] Strong hits were determined as those with less than 20% metalloproteinase activity of the venom and mediocre hits between 20 and 50%. […]

[2] = Water solubility when preparing stocks; type: physicochemical

Row | SMILES | survival (Echis ocellatus venom; 90 μg venom i.p. (5×i.v. LD50), 120 μg of each drug i.p. 15 min later, 24 h monitoring, n=5) | adverse effects in drug-only controls (Echis ocellatus venom; drug only, i.p., 24 hour monitoring) | inhibitory effect against venom metalloproteinase activity [1] | water solubility [2]
1 | O=S(=O)(O)CC(S)CS (stereo not shown) [DMPS, 2,3-dimercapto-1-propanesulfonic acid] | only two of the five experimental animals survived | None of the animals receiving DMPS alone displayed any adverse effects | – | –
2 | CCc1c(C(=O)C(N)=O)c2c(OCC(=O)O)cccc2n1Cc1ccccc1 [varespladib] | – | – | no inhibitory effect | water insolubility
